The conditions of data set [1]: cited from earlier work.
Details of data set [2]: method as in Newell et al., 1988. Particulars: experimental systems; ref Newell et al., 1988; cited from earlier work.
For data set [3] the following is noted: qualitative statement, no reference given; cited from earlier work.
For data set [4] the following is noted: mice, ref Newell et al., cited from earlier work.
The conditions of data set [5]: mice, 1986, cited from earlier work.
On the set-up of data set [6]: method as in Alison et al., 1985; Newell et al., 1986. Particulars: patients; ref Alison et al., 1985; Newell et al., 1986; cited from earlier work.
The next data set is described as follows: Acute toxicity in rats. The data set is classed as in vivo. Particulars: 100 mg kg-1 i.v. An excerpt: (§1) Br. J. Cancer (1990), 62, 766 772 ? Macmillan Press Ltd., 1990 Pharmacokinetic studies with the antifolate C2-desamino-C2-methyl-N10-propargyl-2'-trifluoromethyl-5,8-dideazafolic acid (CB3988) in mice and rats using in vivo '9F-NMR spectroscopy D.R. Newell', R.J. Maxwell2, G.M.F. Bisset', D.I. Jodrell' & J.R. Griffiths2 'Drug Development Section, Institute of Cancer Research, Sutton, Surrey SM2 SNG; and 2CRC Biomedical NMR Group, St George's Hospital Medical School, Tooting, London SW] 7 ORE, UK. Summary In vivo '9F-NMR spectroscopy has been used to study the pharmacokinetics of the experimental antifolate drug CB3988 (C2-desamino-C2-methyl-N'0-propargyl-2'trifluoromethyl-5,8-dideazafolic acid) in mice and rats. NMR results have been compared to those obtained by HPLC and the effect of the inclusion of the CF3 group evaluated by comparing the pharmacokinetics of CB3988 and ICI 198583 (C2-desamino-C2-methyl- N'?-propargyl-5,8-dideazafolic acid) in rats. In mice, following the administration of CB3988 (500 mg kg-' i.v.), drug could be detected in both the upper and the lower abdomen. […] Signal detected in the lower abdomen reached maximum intensity 60-90 min after treatment. […] In the preclinical setting such measurements are usually performed using radio- chemicals and either autoradiographic or quantitative tissue distribution studies (Siddik & Newell, 1988). […]

Data set [7] can be described thus: Plasma pharmacokinetics and biliary/urinary excretion in rats by HPLC. Particulars: 100 mg kg-1 i.v., CB3988 vs ICI 198583. The data set is classed as in vivo.
Source text: as §1

The nature of data set [8]: In vivo 19F-NMR spectroscopy of CB3988 in mice. Conditions: 500 mg kg-1 i.v. The text has this:
(§2) Br. J. Cancer (1990), 62, 766 772 ? Macmillan Press Ltd., 1990 Pharmacokinetic studies with the antifolate C2-desamino-C2-methyl-N10-propargyl-2'-trifluoromethyl-5,8-dideazafolic acid (CB3988) in mice and rats using in vivo '9F-NMR spectroscopy D.R. Newell', R.J. Maxwell2, G.M.F. Bisset', D.I. Jodrell' & J.R. Griffiths2 'Drug Development Section, Institute of Cancer Research, Sutton, Surrey SM2 SNG; and 2CRC Biomedical NMR Group, St George's Hospital Medical School, Tooting, London SW] 7 ORE, UK. Summary In vivo '9F-NMR spectroscopy has been used to study the pharmacokinetics of the experimental antifolate drug CB3988 (C2-desamino-C2-methyl-N'0-propargyl-2'trifluoromethyl-5,8-dideazafolic acid) in mice and rats. NMR results have been compared to those obtained by HPLC and the effect of the inclusion of the CF3 group evaluated by comparing the pharmacokinetics of CB3988 and ICI 198583 (C2-desamino-C2-methyl- N'?-propargyl-5,8-dideazafolic acid) in rats. In mice, following the administration of CB3988 (500 mg kg-' i.v.), drug could be detected in both the upper and the lower abdomen. […] Signal detected in the lower abdomen reached maximum intensity 60-90 min after treatment. […] When the pharmacokinetics of CB3988 and ICI 198583 were compared the only significant difference was in the alpha phase half life which was 2-fold faster for CB3988. […] This is in contrast to N'?-propargyl-5,8-dideazafolic acid, where delayed excretion is associated with hepatic and renal toxicities. The ability to study CB3988 pharmacokinetics non-invasively by '9F-NMR spectroscopy confirms the utility of the technique and, since '9F-NMR can be applied directly to clinical investigations, it may be possible to obtain similar information in humans. It is now accepted that pharmacokinetics are an important determinant of both the activity and toxicity of anticancer drugs (Newell, 1989). This acceptance has led to the inclusion of pharmacokinetic studies in both the preclinical and early clinical evaluation of the majority of novel antitumour agents with two broad aims in mind. Firstly, the studies may be of direct clinical relevance in determining dose escalation during phase I studies (Collins et al., 1986; EORTC PAM Group, 1987) and secondly the information gained may be of value in interpreting both the toxicity and activity of the com- pound. This latter information can in turn be used to develop either new drugs or drug schedules which maximise the therapeutic potential of the agent. In order to conduct pharmacokinetic studies it is necessary to have a method which can accurately and selectively measure levels of the drug and its metabolites in biological fluids and tissues. Ideally the method should allow studies on drug levels in tumour deposits and in sensitive normal tissues since these are more likely to correlate with activity and toxicity than are levels in plasma or urine. In the preclinical setting such measurements are usually performed using radio- chemicals and either autoradiographic or quantitative tissue distribution studies (Siddik & Newell, 1988). However, in patients ethical and clinical considerations restrict the use of radioactive tracers and routine sampling of tumour or nor- mal tissue is not practicable. […] Using physiological pharmaco- kinetic modelling it is possible to extract some tissue distribu- tion information from such data although there is always considerable uncertainty attached to the results because of interpatient variation. […]

Data set [9] is described as follows: In vivo 19F-NMR spectroscopy of CB3988 in rats. Conditions: 100 mg kg-1 i.v.
Source text: as §2

A further data set in a line: Acute toxicity in mice. The data set is classed as in vivo. Particulars: 500 mg kg-1 i.v.
Source text: as §1

A further data set relates to thymidylate synthase. More on the design: method as in A.L. Jackman, unpublished results. Particulars: ref A.L. Jackman, unpublished results; cited from earlier work.
The nature of data set [10]: Quantitative tissue distribution of CB3988 in mice by HPLC. The data set is classed as in vivo. Conditions: 500 mg kg-1 i.v. An excerpt:
Br. J. Cancer (1990), 62, 766 772 ? Macmillan Press Ltd., 1990 Pharmacokinetic studies with the antifolate C2-desamino-C2-methyl-N10-propargyl-2'-trifluoromethyl-5,8-dideazafolic acid (CB3988) in mice and rats using in vivo '9F-NMR spectroscopy D.R. Newell', R.J. Maxwell2, G.M.F. Bisset', D.I. Jodrell' & J.R. Griffiths2 'Drug Development Section, Institute of Cancer Research, Sutton, Surrey SM2 SNG; and 2CRC Biomedical NMR Group, St George's Hospital Medical School, Tooting, London SW] 7 ORE, UK. Summary In vivo '9F-NMR spectroscopy has been used to study the pharmacokinetics of the experimental antifolate drug CB3988 (C2-desamino-C2-methyl-N'0-propargyl-2'trifluoromethyl-5,8-dideazafolic acid) in mice and rats. NMR results have been compared to those obtained by HPLC and the effect of the inclusion of the CF3 group evaluated by comparing the pharmacokinetics of CB3988 and ICI 198583 (C2-desamino-C2-methyl- N'?-propargyl-5,8-dideazafolic acid) in rats. In mice, following the administration of CB3988 (500 mg kg-' i.v.), drug could be detected in both the upper and the lower abdomen. […] Signal detected in the lower abdomen reached maximum intensity 60-90 min after treatment. […] When the pharmacokinetics of CB3988 and ICI 198583 were compared the only significant difference was in the alpha phase half life which was 2-fold faster for CB3988. […] This is in contrast to N'?-propargyl-5,8-dideazafolic acid, where delayed excretion is associated with hepatic and renal toxicities. The ability to study CB3988 pharmacokinetics non-invasively by '9F-NMR spectroscopy confirms the utility of the technique and, since '9F-NMR can be applied directly to clinical investigations, it may be possible to obtain similar information in humans. It is now accepted that pharmacokinetics are an important determinant of both the activity and toxicity of anticancer drugs (Newell, 1989). This acceptance has led to the inclusion of pharmacokinetic studies in both the preclinical and early clinical evaluation of the majority of novel antitumour agents with two broad aims in mind. Firstly, the studies may be of direct clinical relevance in determining dose escalation during phase I studies (Collins et al., 1986; EORTC PAM Group, 1987) and secondly the information gained may be of value in interpreting both the toxicity and activity of the com- pound. This latter information can in turn be used to develop either new drugs or drug schedules which maximise the therapeutic potential of the agent. […] In the preclinical setting such measurements are usually performed using radio- chemicals and either autoradiographic or quantitative tissue distribution studies (Siddik & Newell, 1988). […]

Setting [11] is: upper abdomen, cannulated and bile duct-intact.

SMILES strings stand for the structures. Read-outs that look alike come from different tables or passages of the source. A value given as a limit tells only on which side of the number the result lay.

Here are results for three compounds from publication PMC1971528, “Pharmacokinetic studies with the antifolate C2-desamino-C2-methyl-N10-propargyl-2'-trifluoromethyl-5,8-dideazafolic acid (CB3988) in mice and rats using in vivo 19F-NMR spectroscopy” (British Journal of Cancer, 1990).

As usually defined, the half-life is the time needed for the level to fall by half in the phase considered.

`C#CCN(Cc1ccc2nc(C)[nH]c(=O)c2c1)c1ccc(C(=O)N[C@@H](CCC(=O)O)C(=O)O)cc1` [ICI 198583, C2-desamino-C2-methyl-N10-propargyl-5,8-dideazafolic acid]: in data set [1] (ref Hughes et al., 1988, Jackman et al.), the “potency in cytotoxicity studies relative to CB3717” value was “markedly more potent than CB3717”. In addition, the “acute liver and kidney toxicity” value in data set [2] is “devoid of acute liver and kidney toxicity”. In addition, the aqueous solubility result in [3] is recorded as “greatly enhanced aqueous solubility compared to CB3717”. Also, the “retention in liver and kidney” value in [4] (1988) is “not retained in either the liver or the kidney”.

For `C#CCN(Cc1ccc2nc(N)[nH]c(=O)c2c1)c1ccc(C(=O)N[C@@H](CCC(=O)O)C(=O)O)cc1` [CB3717, N10-propargyl-5,8-dideazafolic acid], the nephrotoxicity result in [5] (ref Alison et al., 1985, Newell et al.) is recorded as “nephrotoxic”; in data set [6], “nephrotoxic”. Moreover, the hepatotoxicity entry in data set [5] (ref Newell et al.) is given as “hepatotoxic”. Moreover, in data set [3], the aqueous solubility entry is on record as “poor solubility”. The “urinary excretion and persistence in kidney” value in [4] (1986) was “delayed urinary excretion and drug still present in the kidney weeks after administration”.

Regarding `C#CCN(Cc1ccc2nc(C)[nH]c(=O)c2c1)c1ccc(C(=O)N[C@@H](CCC(=O)O)C(=O)O)c(C(F)(F)F)c1` [CB3988, C2-desamino-C2-methyl-N10-propargyl-2'trifluoromethyl-5,8-dideazafolic acid], the acute toxicity entry in “Acute toxicity in rats” was “no acute toxicity”. In data set [7], the “alpha phase half life, fold faster than ICI 198583” value stood at 2 fold. Besides, the “time by which urinary excretion is essentially complete” value in data set [8] (NMR signal in bladder) is listed as not above 1 h. For the same compound, the “time at which NMR signal in the lower abdomen reached maximum intensity” value in [8] (lower abdomen) lay within 60 to 90 min. Also, in data set [8] (upper abdomen), the “metabolites (additional peaks) in NMR spectrum” value is listed as “No clear evidence of the presence of additional peaks” and the “time at which NMR signal from the upper abdomen reached maximum intensity” value is 10 to 40 min. Also, the half-life in [8] (mouse, upper abdomen (in vivo NMR signal), iv, analysis period 40-120 min, mean ± s.d. of three mice, read-out: half life for the decline of NMR signal from the upper abdomen (overall mean)) was 28 min. Moreover, the “metabolites in NMR spectra” value in data set [9] (intact and cannulated bile ducts) is reported as “no metabolites being detected”. Moreover, in data set [9] (upper abdomen, bile duct cannulated), the “time by which NMR signal reached the limit of detection” value lay within 15 to 20 min. In data set [9] (setting [11]), the “time after bolus dose at which NMR signal was detected” value is on record as “up to 2 min” and the “time by which NMR signal intensity reached a maximum value” was not above 10 min. For the same compound, in data set [9] (rat, iv, upper abdomen, three bile duct cannulated rats, read-out: half-life for the decline in the NMR signal, individual rats), the half-life worked out at 5.6 min. For the same compound, the “reduction of cytotoxicity in comparison to ICI 198583” value in [1] (ref A.L. Jackman, unpublished results) is on record as 14 fold. The acute toxicity result in the data set “Acute toxicity in mice” is given as “no acute toxicity”. For the same compound, the “reduction of inhibitory activity towards thymidylate synthase in comparison to ICI 198583” value in the data set on thymidylate synthase was 7 fold. In addition, the “CB3988 concentration in bile and urine, molar” value in data set [10] lay in the range of 40 to 60 mM. The “CB3988 concentration in liver and small intestines” value in data set [10] (30 and 60 min) is recorded as more than 1 mg g-1 wet weight. Also, the “CB3988 concentration in bile and urine (gall bladder and urinary bladder)” value in data set [10] (30 and 60 min, HPLC) was 20 to 30 mg/mL. In data set [10] (60 min, large intestine (ND)), this compound registered a Conc. large intestine of less than 0.02 mg g-1 wet weight.
